# Source: ChEMBL document CHEMBL1144479, “Synthesis and antimicrobial studies on novel chloro-fluorine containing hydroxy pyrazolines” (2007)
# Test system: Escherichia coli; for IZ: test concentration or dose not given here
# Experiment: microbe, parasite or virus in culture
# Type: functional, ATCC 25922
# Details: not given
row,Structure (SMILES),inhibition zone (IZ)
1,COc1ccc(C2=NN(C(=O)COc3ccc(Cl)cc3)C(O)(c3cc(F)c(Cl)cc3Cl)C2)cc1 (centres undefined),18 mm
2,Cc1ccc(OCC(=O)N2N=C(c3ccc(Cl)cc3Cl)CC2(O)c2cc(F)c(Cl)cc2Cl)cc1 (centres undefined),15 mm
3,O=C(COc1ccc(Cl)cc1Cl)N1N=C(c2ccc(Cl)cc2Cl)CC1(O)c1cc(F)c(Cl)cc1Cl (centres undefined),17 mm
4,Cc1ccc(OCC(=O)N2N=C(c3ccccc3)CC2(O)c2cc(F)c(Cl)cc2Cl)cc1 (centres undefined),15 mm

# Same assay, conditions: Escherichia coli, ATCC 25922, 24 h
row,MIC,Structure (SMILES)
1,12.5 µg/mL,COc1ccc(C2=NN(C(=O)COc3ccc(Cl)cc3)C(O)(c3cc(F)c(Cl)cc3Cl)C2)cc1 (centres undefined)
2,12.5 µg/mL,Cc1ccc(OCC(=O)N2N=C(c3ccc(Cl)cc3Cl)CC2(O)c2cc(F)c(Cl)cc2Cl)cc1 (centres undefined)
3,12.5 µg/mL,O=C(COc1ccc(Cl)cc1Cl)N1N=C(c2ccc(Cl)cc2Cl)CC1(O)c1cc(F)c(Cl)cc1Cl (centres undefined)
4,12.5 µg/mL,Cc1ccc(OCC(=O)N2N=C(c3ccccc3)CC2(O)c2cc(F)c(Cl)cc2Cl)cc1 (centres undefined)

# Test system: Talaromyces marneffei
# Experiment: Antifungal activity against Penicillium marneffei after 3 to 4 days by serial plate dilution method; for IZ: test concentration or dose not given here
# Type: functional
# Details: not given
row,Structure (SMILES),inhibition zone (IZ)
1,COc1ccc(C2=NN(C(=O)COc3ccc(Cl)cc3)C(O)(c3cc(F)c(Cl)cc3Cl)C2)cc1 (centres undefined),20 mm
2,Cc1ccc(OCC(=O)N2N=C(c3ccc(Cl)cc3Cl)CC2(O)c2cc(F)c(Cl)cc2Cl)cc1 (centres undefined),18 mm
3,Cc1ccc(OCC(=O)N2N=C(c3ccccc3)CC2(O)c2cc(F)c(Cl)cc2Cl)cc1 (centres undefined),12 mm

# Same assay, conditions: Talaromyces marneffei
row,MIC,Structure (SMILES)
1,6.25 µg/mL,COc1ccc(C2=NN(C(=O)COc3ccc(Cl)cc3)C(O)(c3cc(F)c(Cl)cc3Cl)C2)cc1 (centres undefined)
2,6.25 µg/mL,Cc1ccc(OCC(=O)N2N=C(c3ccc(Cl)cc3Cl)CC2(O)c2cc(F)c(Cl)cc2Cl)cc1 (centres undefined)
3,> 100 µg/mL,O=C(COc1ccc(Cl)cc1Cl)N1N=C(c2ccc(Cl)cc2Cl)CC1(O)c1cc(F)c(Cl)cc1Cl (centres undefined)
4,12.5 µg/mL,Cc1ccc(OCC(=O)N2N=C(c3ccccc3)CC2(O)c2cc(F)c(Cl)cc2Cl)cc1 (centres undefined)

# Test system: Aspergillus fumigatus
# Experiment: Antifungal activity against Aspergillus fumigatus NCIM no. 902 after 3 to 4 days by serial plate dilution method; for IZ: test concentration or dose not given here
# Type: functional
# Details: not given
row,Structure (SMILES),inhibition zone (IZ)
1,COc1ccc(C2=NN(C(=O)COc3ccc(Cl)cc3)C(O)(c3cc(F)c(Cl)cc3Cl)C2)cc1 (centres undefined),21 mm
2,Cc1ccc(OCC(=O)N2N=C(c3ccc(Cl)cc3Cl)CC2(O)c2cc(F)c(Cl)cc2Cl)cc1 (centres undefined),20 mm
3,Cc1ccc(OCC(=O)N2N=C(c3ccccc3)CC2(O)c2cc(F)c(Cl)cc2Cl)cc1 (centres undefined),11 mm

# Same assay, conditions: Aspergillus fumigatus
row,MIC,Structure (SMILES)
1,6.25 µg/mL,COc1ccc(C2=NN(C(=O)COc3ccc(Cl)cc3)C(O)(c3cc(F)c(Cl)cc3Cl)C2)cc1 (centres undefined)
2,6.25 µg/mL,Cc1ccc(OCC(=O)N2N=C(c3ccc(Cl)cc3Cl)CC2(O)c2cc(F)c(Cl)cc2Cl)cc1 (centres undefined)
3,> 100 µg/mL,O=C(COc1ccc(Cl)cc1Cl)N1N=C(c2ccc(Cl)cc2Cl)CC1(O)c1cc(F)c(Cl)cc1Cl (centres undefined)
4,12.5 µg/mL,Cc1ccc(OCC(=O)N2N=C(c3ccccc3)CC2(O)c2cc(F)c(Cl)cc2Cl)cc1 (centres undefined)

# Test system: Trichophyton benhamiae
# Experiment: Antifungal activity against Trichophyton mentagrophytes after 3 to 4 days by serial plate dilution method; for IZ: test concentration or dose not given here
# Type: functional, Arthroderma benhamiae
# Details: not given
row,Structure (SMILES),inhibition zone (IZ)
1,COc1ccc(C2=NN(C(=O)COc3ccc(Cl)cc3)C(O)(c3cc(F)c(Cl)cc3Cl)C2)cc1 (centres undefined),19 mm
2,Cc1ccc(OCC(=O)N2N=C(c3ccc(Cl)cc3Cl)CC2(O)c2cc(F)c(Cl)cc2Cl)cc1 (centres undefined),18 mm
3,O=C(COc1ccc(Cl)cc1Cl)N1N=C(c2ccc(Cl)cc2Cl)CC1(O)c1cc(F)c(Cl)cc1Cl (centres undefined),10 mm
4,Cc1ccc(OCC(=O)N2N=C(c3ccccc3)CC2(O)c2cc(F)c(Cl)cc2Cl)cc1 (centres undefined),10 mm

# Same assay, conditions: Trichophyton benhamiae
row,MIC,Structure (SMILES)
1,6.25 µg/mL,COc1ccc(C2=NN(C(=O)COc3ccc(Cl)cc3)C(O)(c3cc(F)c(Cl)cc3Cl)C2)cc1 (centres undefined)
2,6.25 µg/mL,Cc1ccc(OCC(=O)N2N=C(c3ccc(Cl)cc3Cl)CC2(O)c2cc(F)c(Cl)cc2Cl)cc1 (centres undefined)
3,25 µg/mL,O=C(COc1ccc(Cl)cc1Cl)N1N=C(c2ccc(Cl)cc2Cl)CC1(O)c1cc(F)c(Cl)cc1Cl (centres undefined)
4,25 µg/mL,Cc1ccc(OCC(=O)N2N=C(c3ccccc3)CC2(O)c2cc(F)c(Cl)cc2Cl)cc1 (centres undefined)

# Test system: Staphylococcus aureus; for IZ: test concentration or dose not given here
# Experiment: microbe, parasite or virus in culture
# Type: functional, ATCC 25923
# Details: not given
row,Structure (SMILES),inhibition zone (IZ)
1,COc1ccc(C2=NN(C(=O)COc3ccc(Cl)cc3)C(O)(c3cc(F)c(Cl)cc3Cl)C2)cc1 (centres undefined),19 mm
2,Cc1ccc(OCC(=O)N2N=C(c3ccc(Cl)cc3Cl)CC2(O)c2cc(F)c(Cl)cc2Cl)cc1 (centres undefined),19 mm
3,Cc1ccc(OCC(=O)N2N=C(c3ccccc3)CC2(O)c2cc(F)c(Cl)cc2Cl)cc1 (centres undefined),17 mm

# Same assay, conditions: Staphylococcus aureus, ATCC 25923, 24 h
row,MIC,Structure (SMILES)
1,6.25 µg/mL,COc1ccc(C2=NN(C(=O)COc3ccc(Cl)cc3)C(O)(c3cc(F)c(Cl)cc3Cl)C2)cc1 (centres undefined)
2,6.25 µg/mL,Cc1ccc(OCC(=O)N2N=C(c3ccc(Cl)cc3Cl)CC2(O)c2cc(F)c(Cl)cc2Cl)cc1 (centres undefined)
3,> 100 µg/mL,O=C(COc1ccc(Cl)cc1Cl)N1N=C(c2ccc(Cl)cc2Cl)CC1(O)c1cc(F)c(Cl)cc1Cl (centres undefined)
4,6.25 µg/mL,Cc1ccc(OCC(=O)N2N=C(c3ccccc3)CC2(O)c2cc(F)c(Cl)cc2Cl)cc1 (centres undefined)

# Test system: Candida albicans
# Experiment: Antifungal activity against Candida albicans NCIM no. 300 after 3 to 4 days by serial plate dilution method
# Type: functional
# Details: not given
row,Structure (SMILES),inhibition zone (IZ)
1,COc1ccc(C2=NN(C(=O)COc3ccc(Cl)cc3)C(O)(c3cc(F)c(Cl)cc3Cl)C2)cc1 (centres undefined),19 mm
2,Cc1ccc(OCC(=O)N2N=C(c3ccc(Cl)cc3Cl)CC2(O)c2cc(F)c(Cl)cc2Cl)cc1 (centres undefined),19 mm
3,Cc1ccc(OCC(=O)N2N=C(c3ccccc3)CC2(O)c2cc(F)c(Cl)cc2Cl)cc1 (centres undefined),15 mm

# Same assay, conditions: Candida albicans
row,MIC,Structure (SMILES)
1,6.25 µg/mL,COc1ccc(C2=NN(C(=O)COc3ccc(Cl)cc3)C(O)(c3cc(F)c(Cl)cc3Cl)C2)cc1 (centres undefined)
2,6.25 µg/mL,Cc1ccc(OCC(=O)N2N=C(c3ccc(Cl)cc3Cl)CC2(O)c2cc(F)c(Cl)cc2Cl)cc1 (centres undefined)
3,> 100 µg/mL,O=C(COc1ccc(Cl)cc1Cl)N1N=C(c2ccc(Cl)cc2Cl)CC1(O)c1cc(F)c(Cl)cc1Cl (centres undefined)
4,12.5 µg/mL,Cc1ccc(OCC(=O)N2N=C(c3ccccc3)CC2(O)c2cc(F)c(Cl)cc2Cl)cc1 (centres undefined)

# Test system: Streptococcus pyogenes
# Experiment: Antibacterial activity against Streptococcus pyogenes after 24 hrs by disc diffusion method
# Type: functional
# Details: not given
row,Structure (SMILES),inhibition zone (IZ)
1,COc1ccc(C2=NN(C(=O)COc3ccc(Cl)cc3)C(O)(c3cc(F)c(Cl)cc3Cl)C2)cc1 (centres undefined),18 mm
2,Cc1ccc(OCC(=O)N2N=C(c3ccc(Cl)cc3Cl)CC2(O)c2cc(F)c(Cl)cc2Cl)cc1 (centres undefined),18 mm
3,Cc1ccc(OCC(=O)N2N=C(c3ccccc3)CC2(O)c2cc(F)c(Cl)cc2Cl)cc1 (centres undefined),17 mm

# Same assay, conditions: Streptococcus pyogenes, 24 h
row,MIC,Structure (SMILES)
1,12.5 µg/mL,COc1ccc(C2=NN(C(=O)COc3ccc(Cl)cc3)C(O)(c3cc(F)c(Cl)cc3Cl)C2)cc1 (centres undefined)
2,12.5 µg/mL,Cc1ccc(OCC(=O)N2N=C(c3ccc(Cl)cc3Cl)CC2(O)c2cc(F)c(Cl)cc2Cl)cc1 (centres undefined)
3,> 100 µg/mL,O=C(COc1ccc(Cl)cc1Cl)N1N=C(c2ccc(Cl)cc2Cl)CC1(O)c1cc(F)c(Cl)cc1Cl (centres undefined)
4,12.5 µg/mL,Cc1ccc(OCC(=O)N2N=C(c3ccccc3)CC2(O)c2cc(F)c(Cl)cc2Cl)cc1 (centres undefined)

# Test system: Klebsiella pneumoniae; for IZ: test concentration or dose not given here
# Experiment: Antibacterial activity against Klebsiella pneumoniae after 24 hrs by disc diffusion method
# Type: functional
# Details: not given
row,Structure (SMILES),inhibition zone (IZ)
1,COc1ccc(C2=NN(C(=O)COc3ccc(Cl)cc3)C(O)(c3cc(F)c(Cl)cc3Cl)C2)cc1 (centres undefined),19 mm
2,Cc1ccc(OCC(=O)N2N=C(c3ccc(Cl)cc3Cl)CC2(O)c2cc(F)c(Cl)cc2Cl)cc1 (centres undefined),18 mm
3,Cc1ccc(OCC(=O)N2N=C(c3ccccc3)CC2(O)c2cc(F)c(Cl)cc2Cl)cc1 (centres undefined),18 mm

# Same assay, conditions: Klebsiella pneumoniae, 24 h
row,MIC,Structure (SMILES)
1,6.25 µg/mL,COc1ccc(C2=NN(C(=O)COc3ccc(Cl)cc3)C(O)(c3cc(F)c(Cl)cc3Cl)C2)cc1 (centres undefined)
2,6.25 µg/mL,Cc1ccc(OCC(=O)N2N=C(c3ccc(Cl)cc3Cl)CC2(O)c2cc(F)c(Cl)cc2Cl)cc1 (centres undefined)
3,> 100 µg/mL,O=C(COc1ccc(Cl)cc1Cl)N1N=C(c2ccc(Cl)cc2Cl)CC1(O)c1cc(F)c(Cl)cc1Cl (centres undefined)
4,6.25 µg/mL,Cc1ccc(OCC(=O)N2N=C(c3ccccc3)CC2(O)c2cc(F)c(Cl)cc2Cl)cc1 (centres undefined)

# Test system: Pseudomonas aeruginosa; for IZ: test concentration or dose not given here
# Experiment: microbe, parasite or virus in culture
# Type: functional, ATCC 27853
# Details: not given
row,Structure (SMILES),inhibition zone (IZ)
1,COc1ccc(C2=NN(C(=O)COc3ccc(Cl)cc3)C(O)(c3cc(F)c(Cl)cc3Cl)C2)cc1 (centres undefined),22 mm
2,Cc1ccc(OCC(=O)N2N=C(c3ccc(Cl)cc3Cl)CC2(O)c2cc(F)c(Cl)cc2Cl)cc1 (centres undefined),24 mm
3,O=C(COc1ccc(Cl)cc1Cl)N1N=C(c2ccc(Cl)cc2Cl)CC1(O)c1cc(F)c(Cl)cc1Cl (centres undefined),10 mm
4,Cc1ccc(OCC(=O)N2N=C(c3ccccc3)CC2(O)c2cc(F)c(Cl)cc2Cl)cc1 (centres undefined),18 mm

# Same assay, conditions: Pseudomonas aeruginosa, ATCC 27853, 24 h
row,MIC,Structure (SMILES)
1,6.25 µg/mL,COc1ccc(C2=NN(C(=O)COc3ccc(Cl)cc3)C(O)(c3cc(F)c(Cl)cc3Cl)C2)cc1 (centres undefined)
2,6.25 µg/mL,Cc1ccc(OCC(=O)N2N=C(c3ccc(Cl)cc3Cl)CC2(O)c2cc(F)c(Cl)cc2Cl)cc1 (centres undefined)
3,25 µg/mL,O=C(COc1ccc(Cl)cc1Cl)N1N=C(c2ccc(Cl)cc2Cl)CC1(O)c1cc(F)c(Cl)cc1Cl (centres undefined)
4,6.25 µg/mL,Cc1ccc(OCC(=O)N2N=C(c3ccccc3)CC2(O)c2cc(F)c(Cl)cc2Cl)cc1 (centres undefined)

# Test system: Aspergillus flavus
# Experiment: Antifungal activity against Aspergillus flavus NCIM no. 524 after 3 to 4 days by serial plate dilution method; for IZ: test concentration or dose not given here
# Type: functional
# Details: not given
row,Structure (SMILES),inhibition zone (IZ)
1,COc1ccc(C2=NN(C(=O)COc3ccc(Cl)cc3)C(O)(c3cc(F)c(Cl)cc3Cl)C2)cc1 (centres undefined),18 mm
2,Cc1ccc(OCC(=O)N2N=C(c3ccc(Cl)cc3Cl)CC2(O)c2cc(F)c(Cl)cc2Cl)cc1 (centres undefined),16 mm
3,O=C(COc1ccc(Cl)cc1Cl)N1N=C(c2ccc(Cl)cc2Cl)CC1(O)c1cc(F)c(Cl)cc1Cl (centres undefined),12 mm
4,Cc1ccc(OCC(=O)N2N=C(c3ccccc3)CC2(O)c2cc(F)c(Cl)cc2Cl)cc1 (centres undefined),11 mm

# Same assay, conditions: Aspergillus flavus
row,MIC,Structure (SMILES)
1,12.5 µg/mL,COc1ccc(C2=NN(C(=O)COc3ccc(Cl)cc3)C(O)(c3cc(F)c(Cl)cc3Cl)C2)cc1 (centres undefined)
2,12.5 µg/mL,Cc1ccc(OCC(=O)N2N=C(c3ccc(Cl)cc3Cl)CC2(O)c2cc(F)c(Cl)cc2Cl)cc1 (centres undefined)
3,25 µg/mL,O=C(COc1ccc(Cl)cc1Cl)N1N=C(c2ccc(Cl)cc2Cl)CC1(O)c1cc(F)c(Cl)cc1Cl (centres undefined)
4,25 µg/mL,Cc1ccc(OCC(=O)N2N=C(c3ccccc3)CC2(O)c2cc(F)c(Cl)cc2Cl)cc1 (centres undefined)
